In patent US8648068B2, “Heterocycloalkyl-containing thienopyrimidines for pharmaceutical compositions” (Boehringer Ingelheim International GmbH, priority 2010, dated 2014):
Counter-ions that a name gives are not always drawn.

Target: T1, human Mnk2a (Homo sapiens, UniProt Q9HBH9)
T1 construct: made in house; host or cells: E. coli BL21 (vector pGEX-4T1)
Assay: Mnk2a in vitro kinase assay (indirect fluorescence polarization)
Assay type: biochemical
Conditions: GST-Mnk2a pre-activated with ERK2, 20 μM ATP, 30 μM substrate peptide; read-out: MNK2 IC50
Procedure, shortened: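 Indirect competitive fluorescence polarization: kinase-generated phospho-product displaces a fluorophore-labelled phospho-peptide from a phospho-specific antibody. Enzyme is N-terminal GST-Mnk2a from E. coli, activated with pre-activated ERK2 and 50 μM ATP; substrate is an amidated 12-mer peptide around eIF4E Ser209.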

T1 sequence (Q9HBH9 whole entry): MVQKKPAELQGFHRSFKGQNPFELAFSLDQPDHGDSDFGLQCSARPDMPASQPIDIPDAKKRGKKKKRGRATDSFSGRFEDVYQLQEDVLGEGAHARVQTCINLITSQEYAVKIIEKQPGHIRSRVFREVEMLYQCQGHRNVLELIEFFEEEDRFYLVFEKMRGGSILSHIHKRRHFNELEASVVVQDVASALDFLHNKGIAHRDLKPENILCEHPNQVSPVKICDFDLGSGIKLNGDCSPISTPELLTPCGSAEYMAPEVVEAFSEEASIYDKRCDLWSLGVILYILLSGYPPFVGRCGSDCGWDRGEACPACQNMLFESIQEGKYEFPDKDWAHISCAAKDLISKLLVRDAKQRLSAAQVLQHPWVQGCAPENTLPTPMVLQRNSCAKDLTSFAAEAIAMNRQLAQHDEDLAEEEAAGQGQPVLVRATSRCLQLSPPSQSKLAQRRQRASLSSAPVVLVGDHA

Structure (SMILES) | IC50
Cc1c(C(=O)NCCCN(C)C)sc2ncnc(Nc3cccnc3O[C@H]3CCOC3)c12 [Example 270, 5-Methyl-4-{2-[(S)-(tetrahydro-furan-3-yl)oxy]-pyridin-3-ylamino}-thieno[2,3-d]pyrimidine-6-carboxylic acid (3-dimethylamino-propyl)-amide] | 298 nM
Cc1c(C(=O)NC2CCN(C)CC2)sc2ncnc(Nc3ccc(F)cc3O[C@H]3CCOC3)c12 [Example 271, 4-{4-Fluoro-2-[(S)-(tetrahydro-furan-3-yl)oxy]-phenylamino}-5-methyl-thieno[2,3-d]pyrimidine-6-carboxylic acid (1-methyl-piperidin-4-yl)-amide] | 40 nM
Cc1c(C(=O)NC2CCCN(C(=O)OC(C)(C)C)CC2)sc2ncnc(Nc3ccc(F)cc3O[C@H]3CCOC3)c12 (stereo partly drawn) [Example 272, 4-[(4-{4-Fluoro-2-[(S)-(tetrahydro-furan-3-yl)oxy]-phenylamino}-5-methyl-thieno[2,3-d]pyrimidine-6-carbonyl)-amino]-azepane-1-carboxylic acid tert-butyl ester] | 40 nM
Cc1c(C(=O)NC2CCCNCC2)sc2ncnc(Nc3ccc(F)cc3O[C@H]3CCOC3)c12 (stereo partly drawn) [Example 273, 4-{4-Fluoro-2-[(S)-(tetrahydro-furan-3-yl)oxy]-phenylamino}-5-methyl-thieno[2,3-d]pyrimidine-6-carboxylic acid azepan-4-ylamide trifluoroacetate] | 49 nM
Cc1c(C(=O)NCC#CCN(C)C)sc2ncnc(Nc3ccc(F)cc3O[C@@H]3CCOC3)c12 [Example 274] | 19 nM
CSCCCNC(=O)c1sc2ncnc(Nc3cccnc3OC3CCOCC3)c2c1C [Example 279] | 77 nM
Cc1c(C(=O)NCC[S+](C)[O-])sc2ncnc(Nc3cccnc3OC3CCOCC3)c12 (stereo not drawn) [Example 280] | 40 nM
Cc1c(C(=O)NC2CCN(C)CC2)sc2ncnc(Nc3cccnc3OC3CCOCC3)c12 [Example 281] | 42 nM

Test system: Mnk2 (Mnk2a or Mnk2b) or Mnk1
Assay: not given
Conditions: cell culture cells transfected with Mnk2 (Mnk2a or Mnk2b) or Mnk1; cited from earlier work

Structure (SMILES) | reduction of phosphorylated eIF4E
Nc1ncnc2n[nH]c(Nc3ccc(F)cc3)c12 [CGP57380] | strong reduction
